Entries after “also recorded” stand apart in the source; their conditions may differ. Bridge positions count the residues as written; N and C are the ends. Square brackets hold non-standard residues; d marks the D form. Peptide text beside a SMILES is read from it.
Legend:
α5β1 = target: T1, α5β1 (Homo sapiens, UniProt P05556+P08648); assay: Staining of parent K562 cells (α5β1) with biotinylated peptide and streptavidin-PE (flow cytometry); assay type: binding; conditions: 1 μM biotinylated peptide, Streptavidin-PE
T1 construct: host or cells: parent (non-transfected) K562
T1 sequence (P08648 42-894 limits assumed): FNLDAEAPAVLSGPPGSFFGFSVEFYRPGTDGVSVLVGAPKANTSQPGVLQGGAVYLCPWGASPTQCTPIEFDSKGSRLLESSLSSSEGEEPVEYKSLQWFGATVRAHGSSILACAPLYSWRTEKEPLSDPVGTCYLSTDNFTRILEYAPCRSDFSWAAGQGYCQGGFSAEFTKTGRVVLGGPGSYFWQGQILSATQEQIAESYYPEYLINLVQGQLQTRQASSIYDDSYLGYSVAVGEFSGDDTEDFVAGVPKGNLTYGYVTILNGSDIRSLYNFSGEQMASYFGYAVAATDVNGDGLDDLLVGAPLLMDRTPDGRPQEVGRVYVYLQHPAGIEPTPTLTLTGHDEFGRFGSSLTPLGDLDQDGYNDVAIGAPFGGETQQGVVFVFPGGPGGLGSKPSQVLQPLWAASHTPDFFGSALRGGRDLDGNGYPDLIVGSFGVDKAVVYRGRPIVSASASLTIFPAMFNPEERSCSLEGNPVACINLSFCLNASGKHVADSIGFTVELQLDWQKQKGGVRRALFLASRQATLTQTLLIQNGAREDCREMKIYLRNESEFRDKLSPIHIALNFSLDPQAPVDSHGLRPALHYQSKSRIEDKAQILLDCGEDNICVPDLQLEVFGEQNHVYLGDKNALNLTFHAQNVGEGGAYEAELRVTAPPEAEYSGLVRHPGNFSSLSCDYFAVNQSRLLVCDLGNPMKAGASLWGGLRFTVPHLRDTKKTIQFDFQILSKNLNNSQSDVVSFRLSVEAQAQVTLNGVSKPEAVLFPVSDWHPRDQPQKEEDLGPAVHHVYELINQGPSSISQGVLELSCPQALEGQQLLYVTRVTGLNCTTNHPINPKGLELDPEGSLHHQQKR
T1 sequence (P08648 895-1049 partner limits assumed): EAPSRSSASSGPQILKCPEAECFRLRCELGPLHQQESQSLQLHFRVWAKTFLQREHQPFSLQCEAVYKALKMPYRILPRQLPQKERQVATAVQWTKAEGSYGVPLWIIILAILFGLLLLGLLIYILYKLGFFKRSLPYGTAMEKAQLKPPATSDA
T1 sequence (P05556 21-798): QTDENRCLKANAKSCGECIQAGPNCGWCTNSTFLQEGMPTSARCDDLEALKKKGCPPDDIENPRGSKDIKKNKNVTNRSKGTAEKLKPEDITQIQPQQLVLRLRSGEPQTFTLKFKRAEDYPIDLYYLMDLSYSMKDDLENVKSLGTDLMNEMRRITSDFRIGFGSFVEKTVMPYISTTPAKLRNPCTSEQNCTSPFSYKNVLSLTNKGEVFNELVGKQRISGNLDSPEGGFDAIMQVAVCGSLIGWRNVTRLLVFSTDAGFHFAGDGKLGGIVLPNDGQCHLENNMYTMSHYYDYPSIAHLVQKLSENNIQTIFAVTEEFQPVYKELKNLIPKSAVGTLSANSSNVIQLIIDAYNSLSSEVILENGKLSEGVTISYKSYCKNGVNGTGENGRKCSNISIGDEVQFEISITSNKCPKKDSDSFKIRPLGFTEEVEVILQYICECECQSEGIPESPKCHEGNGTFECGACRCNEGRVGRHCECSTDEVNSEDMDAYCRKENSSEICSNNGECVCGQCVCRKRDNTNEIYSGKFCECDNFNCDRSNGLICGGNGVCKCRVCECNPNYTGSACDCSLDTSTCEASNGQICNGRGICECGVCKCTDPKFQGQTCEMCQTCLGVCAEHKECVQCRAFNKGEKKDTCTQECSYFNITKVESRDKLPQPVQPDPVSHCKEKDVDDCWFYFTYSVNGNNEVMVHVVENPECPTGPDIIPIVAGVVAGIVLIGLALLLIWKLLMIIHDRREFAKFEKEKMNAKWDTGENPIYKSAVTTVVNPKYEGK
Description: (§1) After one time wash, samples were tested. […] Then the specific binding equaled to substraction of nonspecific binding from total binding and Kds were analyzed.
(§2) To test the specificity of LXW7, LXW7 was prepared in biotinylated form and incubated with α1, α2, α3, α4, α6, α9, αIIbβ3 and αvβ3 transfected K562 and parent K562 cells (α5β1), followed by incubation with streptavidin-PE. […] The binding affinities of LXW7 and these cyclic RGD pentapeptides against αvβ3 integrin were compared based on their ability to inhibit FITC-Echistatin binding with αvβ3-K562.

α1 = target: T2, α1 (Homo sapiens, UniProt P56199); assay: Staining of α1 transfected K562 cells with biotinylated peptide and streptavidin-PE (flow cytometry); assay type: binding; conditions: 1 μM LXW7-Bio, Streptavidin-PE
T2 construct: expressed in transfected cells; host or cells: K562 (gift of Dr. Yoshikazu Takada)
Description: as §1, §2

αvβ3 integrin [1] = target: T3, αvβ3 integrin (Homo sapiens, UniProt P05106+P06756); assay: Equilibrium binding and antibody blocking of LXW7-Bio on U-87 MG glioblastoma cells (flow cytometry); design: host or cells: U-87MG (A5)
T3 sequence (P06756 31-889 limits assumed): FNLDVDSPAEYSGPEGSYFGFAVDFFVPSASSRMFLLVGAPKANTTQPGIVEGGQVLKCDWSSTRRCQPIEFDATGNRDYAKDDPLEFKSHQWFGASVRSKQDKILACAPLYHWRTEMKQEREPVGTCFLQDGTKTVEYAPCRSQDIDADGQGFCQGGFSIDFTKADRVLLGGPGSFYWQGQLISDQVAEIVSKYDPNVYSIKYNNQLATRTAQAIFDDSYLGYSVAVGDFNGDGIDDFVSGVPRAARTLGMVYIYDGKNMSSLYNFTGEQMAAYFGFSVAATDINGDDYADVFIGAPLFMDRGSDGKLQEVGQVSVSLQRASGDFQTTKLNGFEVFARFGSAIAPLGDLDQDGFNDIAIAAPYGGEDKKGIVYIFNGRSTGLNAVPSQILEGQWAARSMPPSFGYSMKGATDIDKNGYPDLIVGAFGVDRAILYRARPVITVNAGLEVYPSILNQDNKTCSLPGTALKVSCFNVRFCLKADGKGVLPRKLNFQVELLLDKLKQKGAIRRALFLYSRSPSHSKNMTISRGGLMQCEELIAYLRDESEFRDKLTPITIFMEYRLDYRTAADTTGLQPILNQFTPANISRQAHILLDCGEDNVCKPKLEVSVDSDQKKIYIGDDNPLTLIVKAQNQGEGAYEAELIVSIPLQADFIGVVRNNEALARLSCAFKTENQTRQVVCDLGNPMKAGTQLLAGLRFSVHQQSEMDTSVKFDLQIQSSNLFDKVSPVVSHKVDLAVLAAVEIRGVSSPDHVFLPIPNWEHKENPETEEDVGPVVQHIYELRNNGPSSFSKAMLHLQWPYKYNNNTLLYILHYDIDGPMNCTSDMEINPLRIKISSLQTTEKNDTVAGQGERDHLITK
T3 sequence (P06756 891-1048 partner limits assumed): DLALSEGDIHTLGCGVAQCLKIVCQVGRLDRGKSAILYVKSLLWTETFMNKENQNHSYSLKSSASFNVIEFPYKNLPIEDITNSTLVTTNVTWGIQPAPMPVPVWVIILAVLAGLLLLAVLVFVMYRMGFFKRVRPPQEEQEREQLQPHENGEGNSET
T3 sequence (P05106 27-788): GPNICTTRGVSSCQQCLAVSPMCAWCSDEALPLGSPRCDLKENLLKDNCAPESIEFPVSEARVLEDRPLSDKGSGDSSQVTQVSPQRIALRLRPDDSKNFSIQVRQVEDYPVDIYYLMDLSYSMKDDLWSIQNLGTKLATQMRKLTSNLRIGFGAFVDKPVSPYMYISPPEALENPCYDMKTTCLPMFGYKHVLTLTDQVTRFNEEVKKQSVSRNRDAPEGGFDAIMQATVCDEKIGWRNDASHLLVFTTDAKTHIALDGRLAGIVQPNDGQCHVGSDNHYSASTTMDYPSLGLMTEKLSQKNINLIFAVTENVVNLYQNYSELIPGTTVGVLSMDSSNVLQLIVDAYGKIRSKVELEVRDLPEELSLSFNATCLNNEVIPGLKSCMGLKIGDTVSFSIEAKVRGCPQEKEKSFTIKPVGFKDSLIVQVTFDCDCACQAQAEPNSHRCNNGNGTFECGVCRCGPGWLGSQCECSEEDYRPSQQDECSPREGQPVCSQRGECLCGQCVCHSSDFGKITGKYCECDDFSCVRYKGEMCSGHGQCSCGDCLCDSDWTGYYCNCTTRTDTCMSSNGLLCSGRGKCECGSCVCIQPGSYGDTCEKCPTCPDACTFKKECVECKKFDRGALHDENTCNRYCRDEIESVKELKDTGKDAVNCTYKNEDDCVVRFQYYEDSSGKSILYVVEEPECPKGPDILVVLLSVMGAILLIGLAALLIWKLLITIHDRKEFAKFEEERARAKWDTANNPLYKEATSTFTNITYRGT
Description: as §1
(§3) The samples were analyzed with Coulter XL-MCL flow cytometry. The histogram and mean fluorescence intensity (MFI) were determined. The apparent Kd, IC50 were calculated using Graph Prism software (≦www.graphpad.com≧).

α9 = target: T4, α9 (Homo sapiens, UniProt P05556+Q13797); assay: Staining of α9 transfected K562 cells with biotinylated peptide and streptavidin-PE (flow cytometry); assay type: binding; conditions: 1 μM LXW7-Bio, Streptavidin-PE
T4 construct: expressed in transfected cells; host or cells: K562 (gift of Dr. Yoshikazu Takada)
Description: as §1, §2

αvβ3 integrin [2] = target: T3, αvβ3 integrin; assay: Inhibition of biotinylated LXW7 binding to αvβ3-K562 cells (flow cytometry); design: expressed in transfected cells; host or cells: K562 (gift of Dr. Yoshikazu Takada, UC Davis); conditions: LXW9-92: inhibiting the binding of biotinylated LXW7 against αvβ3-K562 cells, LXW7 as internal reference
Description: The apparent IC50 were calculated using Graph Prism software (≦www.graphpad.com≧).
as §3

α4 = target: T5, α4 (Homo sapiens, UniProt P05556+P13612); assay: Staining of α4 transfected K562 cells with biotinylated peptide and streptavidin-PE (flow cytometry); assay type: binding; conditions: 1 μM LXW7-Bio, Streptavidin-PE
T5 construct: expressed in transfected cells; host or cells: K562 (gift of Dr. Yoshikazu Takada)
Description: as §1, §2

α3 = target: T6, α3 (Homo sapiens, UniProt P05556+P26006); assay: Staining of α3 transfected K562 cells with biotinylated peptide and streptavidin-PE (flow cytometry); assay type: binding; conditions: 1 μM LXW7-Bio, Streptavidin-PE
T6 construct: expressed in transfected cells; host or cells: K562 (gift of Dr. Yoshikazu Takada)
Description: as §1, §2

αIIbβ3 = target: T7, αIIbβ3 (Homo sapiens, UniProt P05106+P08514); assay: Staining of αIIbβ3 transfected K562 cells with biotinylated peptide and streptavidin-PE (flow cytometry); assay type: binding; conditions: 1 μM biotinylated peptide, Streptavidin-PE
T7 construct: expressed in transfected cells; host or cells: K562 (gift of Dr. Jennifer Cochran and Dr. Scott D. Blystone)
T7 sequence (P08514 32-887 limits assumed): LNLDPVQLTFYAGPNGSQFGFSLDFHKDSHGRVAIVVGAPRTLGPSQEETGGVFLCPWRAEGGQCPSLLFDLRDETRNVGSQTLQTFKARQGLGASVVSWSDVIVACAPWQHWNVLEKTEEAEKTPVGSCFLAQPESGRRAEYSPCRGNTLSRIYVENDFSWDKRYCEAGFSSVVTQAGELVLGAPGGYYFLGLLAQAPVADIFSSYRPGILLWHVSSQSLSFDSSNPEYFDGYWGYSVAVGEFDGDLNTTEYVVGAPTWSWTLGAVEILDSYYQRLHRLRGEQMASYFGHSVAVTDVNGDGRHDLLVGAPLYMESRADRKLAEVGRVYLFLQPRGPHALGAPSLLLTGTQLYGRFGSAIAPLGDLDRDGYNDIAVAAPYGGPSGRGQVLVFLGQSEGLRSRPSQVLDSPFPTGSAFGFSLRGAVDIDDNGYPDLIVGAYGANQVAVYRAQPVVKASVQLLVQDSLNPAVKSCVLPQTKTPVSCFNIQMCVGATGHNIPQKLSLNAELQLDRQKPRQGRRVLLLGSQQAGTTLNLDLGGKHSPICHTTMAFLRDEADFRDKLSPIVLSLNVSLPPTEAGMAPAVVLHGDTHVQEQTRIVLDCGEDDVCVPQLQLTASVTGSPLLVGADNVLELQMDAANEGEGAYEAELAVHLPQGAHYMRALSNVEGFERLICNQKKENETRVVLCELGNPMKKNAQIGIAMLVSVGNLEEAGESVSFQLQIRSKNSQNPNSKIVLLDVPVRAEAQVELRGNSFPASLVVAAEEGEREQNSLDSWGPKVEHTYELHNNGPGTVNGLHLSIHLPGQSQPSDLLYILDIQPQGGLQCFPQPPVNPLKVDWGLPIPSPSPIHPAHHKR
T7 sequence (P08514 891-1039 partner limits assumed): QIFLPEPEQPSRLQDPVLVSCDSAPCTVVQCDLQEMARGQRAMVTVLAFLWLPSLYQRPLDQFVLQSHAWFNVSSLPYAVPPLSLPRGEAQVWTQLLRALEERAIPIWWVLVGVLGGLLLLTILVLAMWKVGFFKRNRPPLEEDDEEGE
T7 sequence (P05106 27-788): as the sequence (P05106 27-788) above
Description: as §1, §2

αvβ3 integrin [3] = target: T3, αvβ3 integrin; assay: Equilibrium binding and antibody blocking of LXW7-Bio on A375M melanoma cells (flow cytometry); design: host or cells: A375M (A4); U-87MG (A5)
Description: as §1, §3

U-87 MG xenograft = assay: In vivo and ex vivo near infra red fluorescent imaging, U-87 MG xenograft; design: species or system nude mice; conditions: complex of Streptavidin-Cy5.5 with biotinylated peptide, 6 hrs after tail vein injection
Description: Animal studies were performed according to a protocol approved by IACUC of the University of California, Davis.
Animals were placed on a sheet of transparency in different position. […] Images were captured with a CCD camera set at F stop=0, FOV=150, and FP=0. Six hours post injection of imaging complex, the mice were conducted in vivo imaging, then were sacrificed and organs were excised for ex vivo imaging.

αvβ3 = target: T8, αvβ3 (Homo sapiens, UniProt P05106+P06756); assay: Staining of αvβ3 transfected K562 cells with biotinylated peptide and streptavidin-PE (flow cytometry); assay type: binding; conditions: 1 μM biotinylated peptide, Streptavidin-PE
T8 construct: expressed in transfected cells; host or cells: K562 (gift of Dr. Yoshikazu Takada, UC Davis)
T8 sequence (P06756 31-889 limits assumed): as the sequence (P06756 31-889 limits assumed) above
T8 sequence (P06756 891-1048 partner limits assumed): as the sequence (P06756 891-1048 partner limits assumed) above
T8 sequence (P05106 27-788): as the sequence (P05106 27-788) above
Description: as §1, §2

αvβ3 integrin [4] = target: T3, αvβ3 integrin; assay: Inhibition of FITC-Echistatin binding to αvβ3-K562 cells (flow cytometry); design: expressed in transfected cells; host or cells: K562 (gift of Dr. Yoshikazu Takada, UC Davis)
Description: as §3

α2 = target: T9, α2 (Homo sapiens, UniProt P17301); assay: Staining of α2 transfected K562 cells with biotinylated peptide and streptavidin-PE (flow cytometry); assay type: binding; conditions: 1 μM LXW7-Bio, Streptavidin-PE
T9 construct: expressed in transfected cells; host or cells: K562 (gift of Dr. Yoshikazu Takada)
Description: as §1, §2

α6 = target: T10, α6 (Homo sapiens, UniProt P05556+P23229); assay: Staining of α6 transfected K562 cells with biotinylated peptide and streptavidin-PE (flow cytometry); assay type: binding; conditions: 1 μM LXW7-Bio, Streptavidin-PE
T10 construct: expressed in transfected cells; host or cells: K562 (gift of Dr. Yoshikazu Takada)
Description: as §1, §2

αvβ3 integrin [5] = target: T3, αvβ3 integrin; assay: Equilibrium binding of LXW7-Bio to αvβ3-K562 cells (flow cytometry); design: expressed in transfected cells; host or cells: K562 (gift of Dr. Yoshikazu Takada, UC Davis)
Description: as §1, §3

[6] = 10 μg LM609 premixed with 1 μM LXW7-Bio

For `CC(C)[C@H]1NC(=O)[C@@H](CC(=O)O)NC(=O)[C@H](CC(=O)O)NC(=O)CNC(=O)[C@H](CCCNC(=N)N)NC(=O)CNC(=O)[C@H](N)CSSC[C@H](C(N)=O)NC1=O` [LXW7, cGRGDdvc] (H-[dC]GRGD[dD][dV][dC]-NH2; disulfide 1-8), the “binding with α5β1 (α5)” value (α5β1) was “no binding; also recorded: not at all”, the “binding with α1” value (α1) was “no binding; also recorded: not at all” and the “binding to U-87 MG cells in presence of anti-αvβ3 antibody (LM609)” value (αvβ3 integrin [1]; [6]) was “markedly blocked”. For the same compound, the “Bmax (A.U)” value (αvβ3 integrin [1]; U-87 MG) was 86 ± 4 A.U, the Kd (αvβ3 integrin [1]; U-87 MG) was 72 ± 15 nM and the “binding with α9” value (α9) was “no binding; also recorded: not at all”. The IC50 (αvβ3 integrin [2]) was 590 nM, the “binding with α4” value (α4) was “no binding” and the “binding with α3” value (α3) was “no binding; also recorded: not at all”. For the same compound, the “binding with αIIbβ3” value (αIIbβ3) was “weak cross-reaction; also recorded: weakly”, the “binding to A375M cells in presence of anti-αvβ3 antibody (LM609)” value (αvβ3 integrin [3]; [6]) was “markedly blocked” and the “Bmax (A.U)” value (αvβ3 integrin [3]; A375M) was 71 ± 4 A.U. The Kd (αvβ3 integrin [3]; A375M) was 89 ± 8 nM, the “liver uptake, ex vivo imaging” value (U-87 MG xenograft) was “low” and the “tumor uptake, ex vivo imaging” value (U-87 MG xenograft) was “high”. For the same compound, the “binding with αvβ3” value (αvβ3) was “strong positive binding; also recorded: strongly bound”, the “binding strength to αvβ3 integrin, biotinylated versus non-biotinylated, in words” value (αvβ3 integrin [4]) was “near identical binding strength” and the IC50 (αvβ3 integrin [4]; LXW1-8: inhibition of binding of FITC-Echistatin against αvβ3-K562, class symbols, read-out: IC50) was under 1000 nM. For the same compound, the “binding with α2” value (α2) was “no binding; also recorded: not at all”, the “binding with α6” value (α6) was “no binding; also recorded: not at all” and the “Bmax (A.U)” value (αvβ3 integrin [5]) was 1394 ± 57 A.U. The Kd (αvβ3 integrin [5]) was 76 ± 10 nM.

Source: US9073974B2, “RGD-containing cyclic peptides” (The Regents of the University of California, priority 2009, dated 2015)
